Experimental data from PubChem BioAssay (NCI).
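The concentration for 50% growth inhibition is given as GI50. TGI: concentration producing complete growth inhibition.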

Experiments:
Assay in all cases: NCI-60 cell line screen, 384-well format
786-0 renal = test system: 786-0 renal
A498 renal = test system: A498 renal
A549 NSCLC = test system: A549 NSCLC
ACHN renal = test system: ACHN renal
BT-549 breast = test system: BT-549 breast
CAKI-1 renal = test system: CAKI-1 renal
CCRF-CEM leukemia = test system: CCRF-CEM leukemia
COLO 205 colon = test system: COLO 205 colon
DU-145 prostate = test system: DU-145 prostate
EKVX NSCLC = test system: EKVX NSCLC
HCC-2998 colon = test system: HCC-2998 colon
HCT-116 colon = test system: HCT-116 colon
HCT-15 colon = test system: HCT-15 colon
HL-60(TB) leukemia = test system: HL-60(TB) leukemia
HOP-62 NSCLC = test system: HOP-62 NSCLC
HS 578T breast = test system: HS 578T breast
HT29 colon = test system: HT29 colon
IGROV1 ovarian = test system: IGROV1 ovarian
K-562 leukemia = test system: K-562 leukemia
KM12 colon = test system: KM12 colon
LOX IMVI melanoma = test system: LOX IMVI melanoma
M14 melanoma = test system: M14 melanoma
MALME-3M melanoma = test system: MALME-3M melanoma
MCF7 breast = test system: MCF7 breast
MDA-MB-231 breast = test system: MDA-MB-231 breast
MDA-MB-435 melanoma = test system: MDA-MB-435 melanoma
MDA-MB-468 breast = test system: MDA-MB-468 breast
MOLT-4 leukemia = test system: MOLT-4 leukemia
NCI-H226 lung = test system: NCI-H226 lung
NCI-H23 lung = test system: NCI-H23 lung
NCI-H322M lung = test system: NCI-H322M lung
NCI-H460 NSCLC = test system: NCI-H460 NSCLC
NCI-H522 lung = test system: NCI-H522 lung
NCI/ADR-RES ovarian = test system: NCI/ADR-RES ovarian
OVCAR-3 ovarian = test system: OVCAR-3 ovarian
OVCAR-4 ovarian = test system: OVCAR-4 ovarian
OVCAR-5 ovarian = test system: OVCAR-5 ovarian
OVCAR-8 ovarian = test system: OVCAR-8 ovarian
PC-3 prostate = test system: PC-3 prostate
RPMI-8226 leukemia = test system: RPMI-8226 leukemia
RXF 393 renal = test system: RXF 393 renal
SF-268 CNS = test system: SF-268 CNS
SF-295 CNS = test system: SF-295 CNS
SF-539 CNS = test system: SF-539 CNS
SK-MEL-2 melanoma = test system: SK-MEL-2 melanoma
SK-MEL-28 melanoma = test system: SK-MEL-28 melanoma
SK-MEL-5 melanoma = test system: SK-MEL-5 melanoma
SK-OV-3 ovarian = test system: SK-OV-3 ovarian
SN12C renal = test system: SN12C renal
SNB-19 CNS = test system: SNB-19 CNS
SNB-75 CNS = test system: SNB-75 CNS
SR leukemia = test system: SR leukemia
SW-620 colon = test system: SW-620 colon
T-47D breast = test system: T-47D breast
TK-10 renal = test system: TK-10 renal
U251 glioblastoma = test system: U251 glioblastoma
UACC-257 melanoma = test system: UACC-257 melanoma
UACC-62 melanoma = test system: UACC-62 melanoma

With Cc1[nH]ncc1-c1cc2nc(C3CC4CCN3CC4)[nH]c(=O)c2s1 (stereo not given) the GI50 ([…]-0 renal) was 2.75 µM, the TGI (786-0 renal) was 55.1 µM and the GI50 (A498 renal) was 0.0828 µM. The TGI (A498 renal) was 70.7 µM, the GI50 (A549 NSCLC) was 2.86 µM and the TGI (A549 NSCLC) was greater than 100 µM. It also gave a GI50 (ACHN renal) of 1.96 µM, a TGI (ACHN renal) greater than 100 µM and a GI50 (BT-549 breast) of 1.85 µM. The TGI (BT-549 breast) was 6.54 µM, the GI50 (CAKI-1 renal) was 1.56 µM and the TGI (CAKI-1 renal) was greater than 100 µM. It also gave a GI50 (CCRF-CEM leukemia) of 0.138 µM, a TGI (CCRF-CEM leukemia) of 0.905 µM and a GI50 (COLO 205 colon) of 0.0396 µM. It also gave a TGI (COLO 205 colon) of 0.198 µM, a GI50 (DU-145 prostate) of 0.876 µM and a TGI (DU-145 prostate) greater than 100 µM. For the same compound, the GI50 (EKVX NSCLC) was 5.93 µM, the TGI (EKVX NSCLC) was 42.9 µM and the GI50 (HCC-2998 colon) was 3.48 µM. For the same compound, the TGI (HCC-2998 colon) was 24.2 µM, the GI50 (HCT-116 colon) was 2.16 µM and the TGI (HCT-116 colon) was greater than 100 µM. For the same compound, the GI50 (HCT-15 colon) was 2.74 µM, the TGI (HCT-15 colon) was greater than 100 µM and the GI50 (HL-60(TB) leukemia) was 0.562 µM. The TGI (HL-60(TB) leukemia) was 1.8 µM, the GI50 (HOP-62 NSCLC) was 2.31 µM and the TGI (HOP-62 NSCLC) was 16.1 µM. For the same compound, the GI50 (HS 578T breast) was 1.48 µM, the TGI (HS 578T breast) was 3.32 µM and the GI50 (HT29 colon) was 14.4 µM. The TGI (HT29 colon) was greater than 100 µM, the GI50 (IGROV1 ovarian) was 3.76 µM and the TGI (IGROV1 ovarian) was greater than 51.1 µM. It also gave a GI50 (K-562 leukemia) of 5.24 µM, a TGI (K-562 leukemia) greater than 100 µM and a GI50 (KM12 colon) of 3.22 µM. For the same compound, the TGI (KM12 colon) was 25.7 µM, the GI50 (LOX IMVI melanoma) was 0.888 µM and the TGI (LOX IMVI melanoma) was 14.6 µM. For the same compound, the GI50 (M14 melanoma) was 5.7 µM, the TGI (M14 melanoma) was 19.4 µM and the GI50 (MALME-3M melanoma) was 11.1 µM. It also gave a TGI (MALME-3M melanoma) of 29.7 µM, a GI50 (MCF7 breast) of 3.55 µM and a TGI (MCF7 breast) greater than 100 µM. For the same compound, the GI50 (MDA-MB-231 breast) was 7.14 µM, the TGI (MDA-MB-231 breast) was greater than 100 µM and the GI50 (MDA-MB-435 melanoma) was 9.26 µM. For the same compound, the TGI (MDA-MB-435 melanoma) was 28 µM, the GI50 (MDA-MB-468 breast) was 1.17 µM and the TGI (MDA-MB-468 breast) was 20.9 µM. It also gave a GI50 (MOLT-4 leukemia) of 1.14 µM, a TGI (MOLT-4 leukemia) of 11.3 µM and a GI50 (NCI-H226 lung) of 2.53 µM. It also gave a TGI (NCI-H226 lung) of 15.9 µM, a GI50 (NCI-H23 lung) of 1.36 µM and a TGI (NCI-H23 lung) of 6.79 µM. It also gave a GI50 (NCI-H322M lung) of 6.94 µM, a TGI (NCI-H322M lung) of 34.3 µM and a GI50 (NCI-H460 NSCLC) of 1.19 µM. For the same compound, the TGI (NCI-H460 NSCLC) was 5.55 µM, the GI50 (NCI-H522 lung) was 0.381 µM and the TGI (NCI-H522 lung) was 7.5 µM. For the same compound, the GI50 (NCI/ADR-RES ovarian) was 16.2 µM, the TGI (NCI/ADR-RES ovarian) was 65.8 µM and the GI50 (OVCAR-3 ovarian) was 2.93 µM. The TGI (OVCAR-3 ovarian) was 18.3 µM, the GI50 (OVCAR-4 ovarian) was 21.4 µM and the TGI (OVCAR-4 ovarian) was 74.9 µM. It also gave a GI50 (OVCAR-5 ovarian) of 4.24 µM, a TGI (OVCAR-5 ovarian) greater than 100 µM and a GI50 (OVCAR-8 ovarian) of 8.87 µM. For the same compound, the TGI (OVCAR-8 ovarian) was greater than 100 µM, the GI50 (PC-3 prostate) was 8.96 µM and the TGI (PC-3 prostate) was greater than 100 µM. The GI50 (RPMI-8226 leukemia) was 10.3 µM, the TGI (RPMI-8226 leukemia) was 22 µM and the GI50 (RXF 393 renal) was 2.27 µM. It also gave a TGI (RXF 393 renal) of 7.19 µM, a GI50 (SF-268 CNS) of 1.42 µM and a TGI (SF-268 CNS) of 4.23 µM. It also gave a GI50 (SF-295 CNS) of 1.19 µM, a TGI (SF-295 CNS) of 49.4 µM and a GI50 (SF-539 CNS) of 1.31 µM. It also gave a TGI (SF-539 CNS) of 7.72 µM, a GI50 (SK-MEL-2 melanoma) of 6.55 µM and a TGI (SK-MEL-2 melanoma) of 18.4 µM. For the same compound, the GI50 (SK-MEL-28 melanoma) was 6.67 µM, the TGI (SK-MEL-28 melanoma) was 23.2 µM and the GI50 (SK-MEL-5 melanoma) was 2.18 µM. It also gave a TGI (SK-MEL-5 melanoma) of 7.13 µM, a GI50 (SK-OV-3 ovarian) of 17.8 µM and a TGI (SK-OV-3 ovarian) greater than 100 µM. The GI50 (SN12C renal) was 1.78 µM, the TGI (SN12C renal) was 17.9 µM and the GI50 (SNB-19 CNS) was 9.66 µM. It also gave a TGI (SNB-19 CNS) greater than 100 µM, a GI50 (SNB-75 CNS) of 2.06 µM and a TGI (SNB-75 CNS) of 7.46 µM. The GI50 (SR leukemia) was 0.178 µM, the TGI (SR leukemia) was 0.366 µM and the GI50 (SW-620 colon) was 0.333 µM. It also gave a GI50 (T-47D breast) of 24.9 µM, a TGI (T-47D breast) greater than 100 µM and a GI50 (TK-10 renal) of 9.31 µM. For the same compound, the TGI (TK-10 renal) was greater than 79.3 µM, the GI50 (U251 glioblastoma) was 1.38 µM and the TGI (U251 glioblastoma) was 74.2 µM. It also gave a GI50 (UACC-257 melanoma) of 15.2 µM, a TGI (UACC-257 melanoma) of 43.8 µM and a GI50 (UACC-62 melanoma) of 2.88 µM. The TGI (UACC-62 melanoma) was 15.5 µM.
